Patent publication US20230085307A1, “PYRIDAZINONE COMPOUND AND HERBICIDE” (NISSAN CHEMICAL CORPORATION, priority 2019, published 2023)

These molecules were tested on persian speedwell (assay: Test Example 4: herbicidal effect by soil treatment (Table 19, symbol R)). Settings: 320 g/ha.
Format: in vivo, Persian speedwell (Veronica persica)
How it was run: (§1)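 Scoring uses the grading scale of an earlier test, three weeks post-application. Treatment consists of spraying a diluted emulsion formulation across the surface of sterilized diluvial soil in which seeds are buried near 1.5 cm deep; boxes are kept in a greenhouse between 25° C. and 30° C.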

| SMILES | herbicidal effect rating, R: persian speedwell |
| --- | --- |
| COCc1ccc(-c2sc3ccc(F)cc3c2-c2c(O)c(C)nn(C)c2=O)cc1 [2-022] | 5 (Herbicidal rate of 90% or more (almost completely withered)) |

Same assay, conditions: AAH 320 g/ha

| SMILES | R: persian speedwell, herbicidal effect rating |
| --- | --- |
| Cc1nn(C)c(=O)c(-c2c(-c3ccc(OC(F)F)cc3)sc3ccccc23)c1O [1-201] | 5 (Herbicidal rate of 90% or more (almost completely withered)) |
| C#CCSCc1ccc(-c2sc3ccccc3c2-c2c(O)c(C)nn(C)c2=O)cc1 [1-247] | 4 (Herbicidal rate of 70% or more and less than 90%) |

Each molecule was assayed on velvetleaf (assay: Test Example 4: herbicidal effect by soil treatment (Table 19, symbol M)). Settings: 320 g/ha.
Format: in vivo, velvetleaf (Abutilon theophrasti)
How it was run: as §1

| SMILES | herbicidal effect rating, M: velvetleaf |
| --- | --- |
| COCc1ccc(-c2sc3ccc(F)cc3c2-c2c(O)c(C)nn(C)c2=O)cc1 [2-022] | 4 (Herbicidal rate of 70% or more and less than 90%) |

Same assay, conditions: AAH 320 g/ha

| SMILES | M: velvetleaf, herbicidal effect rating |
| --- | --- |
| Cc1nn(C)c(=O)c(-c2c(-c3ccc(OC(F)F)cc3)sc3ccccc23)c1O [1-201] | 3 (Herbicidal rate of 40% or more and less than 70%) |
| C#CCSCc1ccc(-c2sc3ccccc3c2-c2c(O)c(C)nn(C)c2=O)cc1 [1-247] | 0 (Herbicidal rate of 5% or less (almost no effect)) |

The molecules below were run on blackgrass (assay: Test Example 4: herbicidal effect by soil treatment (Table 19, symbol J)). Settings: 320 g/ha.
Format: in vivo, blackgrass (Alopecurus myosuroides)
How it was run: as §1

| SMILES | herbicidal effect rating, J: blackgrass |
| --- | --- |
| COCc1ccc(-c2sc3ccc(F)cc3c2-c2c(O)c(C)nn(C)c2=O)cc1 [2-022] | 4 (Herbicidal rate of 70% or more and less than 90%) |

Same assay, conditions: AAH 320 g/ha

| SMILES | J: blackgrass, herbicidal effect rating |
| --- | --- |
| Cc1nn(C)c(=O)c(-c2c(-c3ccc(OC(F)F)cc3)sc3ccccc23)c1O [1-201] | 0 (Herbicidal rate of 5% or less (almost no effect)) |
| C#CCSCc1ccc(-c2sc3ccccc3c2-c2c(O)c(C)nn(C)c2=O)cc1 [1-247] | 0 (Herbicidal rate of 5% or less (almost no effect)) |

These molecules were tested on Japanese bulrush (assay: Test Example 2: herbicidal activity, application during weed generation under submerged conditions (Table 17, symbol B)). Settings: AAH 320 g/ha; application during weed generation, submerged conditions.
Format: in vivo, Japanese bulrush (Schoenoplectus juncoides)
How it was run: (§2)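 Alluvial soil in Wagner pots was flooded to 4 cm depth and sown with the three weeds together; pots were kept in a greenhouse at 25° C. to 30° C. At the one to two leaf stage, an emulsion formulation diluted in water to a set rate went onto the water surface; scored three weeks later.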

| SMILES | herbicidal effect rating, B: Japanese bulrush |
| --- | --- |
| Cc1nn(C)c(=O)c(-c2c(-c3ccc(OC(F)F)cc3)sc3ccccc23)c1O [1-201] | 3 (Herbicidal rate of 40% or more and less than 70%) |
| C#CCSCc1ccc(-c2sc3ccccc3c2-c2c(O)c(C)nn(C)c2=O)cc1 [1-247] | 0 (Herbicidal rate of 5% or less (almost no effect)) |
| COCc1ccc(-c2sc3ccc(F)cc3c2-c2c(O)c(C)nn(C)c2=O)cc1 [2-022] | 2 (Herbicidal rate of 20% or more and less than 40%) |

The molecules below were run on barnyard grass (assay: Test Example 5: herbicidal effect by foliage application, plastic box (Table 20, symbol H)). Settings: foliage application, 320 g/ha, 3 weeks after application.
Format: in vivo, barnyard grass (Echinochloa crus-galli)
How it was run: (§3)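 Post-emergence foliar test in sterilized diluvial soil. Compound applied as water-diluted emulsion at a predetermined rate to 14-day-old plants; evaluation at three weeks.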

| SMILES | effect on barnyard grass (H) |
| --- | --- |
| Cc1nn(C)c(=O)c(-c2c(-c3ccc(OC(F)F)cc3)sc3ccccc23)c1O [1-201] | 5 (Herbicidal rate of 90% or more (almost completely withered)) |
| C#CCSCc1ccc(-c2sc3ccccc3c2-c2c(O)c(C)nn(C)c2=O)cc1 [1-247] | 4 (Herbicidal rate of 70% or more and less than 90%) |
| COCc1ccc(-c2sc3ccc(F)cc3c2-c2c(O)c(C)nn(C)c2=O)cc1 [2-022] | 5 (Herbicidal rate of 90% or more (almost completely withered)) |

What follows are molecules tested on southern crabgrass (assay: Test Example 4: herbicidal effect by soil treatment (Table 19, symbol F)). Settings: 320 g/ha.
Format: in vivo, southern crabgrass (Digitaria ciliaris)
How it was run: as §1

| SMILES | herbicidal effect rating, F: southern crabgrass |
| --- | --- |
| COCc1ccc(-c2sc3ccc(F)cc3c2-c2c(O)c(C)nn(C)c2=O)cc1 [2-022] | 3 (Herbicidal rate of 40% or more and less than 70%) |

Same assay, conditions: AAH 320 g/ha

| SMILES | F: southern crabgrass, herbicidal effect rating |
| --- | --- |
| Cc1nn(C)c(=O)c(-c2c(-c3ccc(OC(F)F)cc3)sc3ccccc23)c1O [1-201] | 2 (Herbicidal rate of 20% or more and less than 40%) |
| C#CCSCc1ccc(-c2sc3ccccc3c2-c2c(O)c(C)nn(C)c2=O)cc1 [1-247] | 0 (Herbicidal rate of 5% or less (almost no effect)) |

Each molecule was assayed on windgrass (assay: Test Example 5: herbicidal effect by foliage application, plastic box (Table 20, symbol L)). Settings: foliage application, 320 g/ha, 3 weeks after application.
Format: in vivo, windgrass (Apera spica-venti)
How it was run: as §3

| SMILES | effect on windgrass (L) |
| --- | --- |
| Cc1nn(C)c(=O)c(-c2c(-c3ccc(OC(F)F)cc3)sc3ccccc23)c1O [1-201] | 4 (Herbicidal rate of 70% or more and less than 90%) |
| C#CCSCc1ccc(-c2sc3ccccc3c2-c2c(O)c(C)nn(C)c2=O)cc1 [1-247] | 0 (Herbicidal rate of 5% or less (almost no effect)) |
| COCc1ccc(-c2sc3ccc(F)cc3c2-c2c(O)c(C)nn(C)c2=O)cc1 [2-022] | 4 (Herbicidal rate of 70% or more and less than 90%) |

These molecules were tested on barnyard grass (assay: Test Example 4: herbicidal effect by soil treatment (Table 19, symbol H)). Settings: 320 g/ha.
Format: in vivo, barnyard grass (Echinochloa crus-galli)
How it was run: as §1

| SMILES | herbicidal effect rating, H: barnyard grass |
| --- | --- |
| COCc1ccc(-c2sc3ccc(F)cc3c2-c2c(O)c(C)nn(C)c2=O)cc1 [2-022] | 5 (Herbicidal rate of 90% or more (almost completely withered)) |

Same assay, conditions: AAH 320 g/ha

| SMILES | H: barnyard grass, herbicidal effect rating |
| --- | --- |
| Cc1nn(C)c(=O)c(-c2c(-c3ccc(OC(F)F)cc3)sc3ccccc23)c1O [1-201] | 5 (Herbicidal rate of 90% or more (almost completely withered)) |
| C#CCSCc1ccc(-c2sc3ccccc3c2-c2c(O)c(C)nn(C)c2=O)cc1 [1-247] | 0 (Herbicidal rate of 5% or less (almost no effect)) |

These molecules were tested on persian speedwell (assay: Test Example 5: herbicidal effect by foliage application, plastic box (Table 20, symbol R)). Settings: foliage application, 320 g/ha, 3 weeks after application.
Format: in vivo, Persian speedwell (Veronica persica)
How it was run: as §3

| SMILES | effect on persian speedwell (R) |
| --- | --- |
| Cc1nn(C)c(=O)c(-c2c(-c3ccc(OC(F)F)cc3)sc3ccccc23)c1O [1-201] | 5 (Herbicidal rate of 90% or more (almost completely withered)) |
| C#CCSCc1ccc(-c2sc3ccccc3c2-c2c(O)c(C)nn(C)c2=O)cc1 [1-247] | 5 (Herbicidal rate of 90% or more (almost completely withered)) |
| COCc1ccc(-c2sc3ccc(F)cc3c2-c2c(O)c(C)nn(C)c2=O)cc1 [2-022] | 5 (Herbicidal rate of 90% or more (almost completely withered)) |

What follows are molecules tested on redroot pigweed (assay: Test Example 4: herbicidal effect by soil treatment (Table 19, symbol N)). Settings: 320 g/ha.
Format: in vivo, redroot pigweed (Amaranthus retroflexus)
How it was run: as §1

| SMILES | herbicidal effect rating, N: redroot pigweed |
| --- | --- |
| COCc1ccc(-c2sc3ccc(F)cc3c2-c2c(O)c(C)nn(C)c2=O)cc1 [2-022] | 5 (Herbicidal rate of 90% or more (almost completely withered)) |

Same assay, conditions: AAH 320 g/ha

| SMILES | N: redroot pigweed, herbicidal effect rating |
| --- | --- |
| Cc1nn(C)c(=O)c(-c2c(-c3ccc(OC(F)F)cc3)sc3ccccc23)c1O [1-201] | 5 (Herbicidal rate of 90% or more (almost completely withered)) |
| C#CCSCc1ccc(-c2sc3ccccc3c2-c2c(O)c(C)nn(C)c2=O)cc1 [1-247] | 3 (Herbicidal rate of 40% or more and less than 70%) |

What follows are molecules tested on oval-leafed pondweed (assay: Test Example 2: herbicidal activity, application during weed generation under submerged conditions (Table 17, symbol C)). Settings: AAH 320 g/ha; application during weed generation, submerged conditions.
Format: in vivo, oval-leafed pondweed (Monochoria vaginalis)
How it was run: as §2

| SMILES | herbicidal effect rating, C: oval-leafed pondweed |
| --- | --- |
| Cc1nn(C)c(=O)c(-c2c(-c3ccc(OC(F)F)cc3)sc3ccccc23)c1O [1-201] | 3 (Herbicidal rate of 40% or more and less than 70%) |
| C#CCSCc1ccc(-c2sc3ccccc3c2-c2c(O)c(C)nn(C)c2=O)cc1 [1-247] | 0 (Herbicidal rate of 5% or less (almost no effect)) |
| COCc1ccc(-c2sc3ccc(F)cc3c2-c2c(O)c(C)nn(C)c2=O)cc1 [2-022] | 4 (Herbicidal rate of 70% or more and less than 90%) |

Each molecule was assayed on late watergrass (assay: Test Example 2: herbicidal activity, application during weed generation under submerged conditions (Table 17, symbol A)). Settings: AAH 320 g/ha; application during weed generation, submerged conditions.
Format: in vivo, late watergrass (Echinochloa oryzicola)
How it was run: as §2

| SMILES | herbicidal effect rating, A: late watergrass |
| --- | --- |
| Cc1nn(C)c(=O)c(-c2c(-c3ccc(OC(F)F)cc3)sc3ccccc23)c1O [1-201] | 0 (Herbicidal rate of 5% or less (almost no effect)) |
| C#CCSCc1ccc(-c2sc3ccccc3c2-c2c(O)c(C)nn(C)c2=O)cc1 [1-247] | 3 (Herbicidal rate of 40% or more and less than 70%) |
| COCc1ccc(-c2sc3ccc(F)cc3c2-c2c(O)c(C)nn(C)c2=O)cc1 [2-022] | 2 (Herbicidal rate of 20% or more and less than 40%) |

The molecules below were run on green foxtail (assay: Test Example 4: herbicidal effect by soil treatment (Table 19, symbol G)). Settings: 320 g/ha.
Format: in vivo, green foxtail (Setaria viridis)
How it was run: as §1

| SMILES | herbicidal effect rating, G: green foxtail |
| --- | --- |
| COCc1ccc(-c2sc3ccc(F)cc3c2-c2c(O)c(C)nn(C)c2=O)cc1 [2-022] | 5 (Herbicidal rate of 90% or more (almost completely withered)) |

Same assay, conditions: AAH 320 g/ha

| SMILES | G: green foxtail, herbicidal effect rating |
| --- | --- |
| Cc1nn(C)c(=O)c(-c2c(-c3ccc(OC(F)F)cc3)sc3ccccc23)c1O [1-201] | 5 (Herbicidal rate of 90% or more (almost completely withered)) |
| C#CCSCc1ccc(-c2sc3ccccc3c2-c2c(O)c(C)nn(C)c2=O)cc1 [1-247] | 0 (Herbicidal rate of 5% or less (almost no effect)) |

What follows are molecules tested on wild oat (assay: Test Example 4: herbicidal effect by soil treatment (Table 19, symbol I)). Settings: 320 g/ha.
Format: in vivo, wild oat (Avena fatua)
How it was run: as §1

| SMILES | herbicidal effect rating, I: wild oat |
| --- | --- |
| COCc1ccc(-c2sc3ccc(F)cc3c2-c2c(O)c(C)nn(C)c2=O)cc1 [2-022] | 0 (Herbicidal rate of 5% or less (almost no effect)) |

Same assay, conditions: AAH 320 g/ha

| SMILES | I: wild oat, herbicidal effect rating |
| --- | --- |
| Cc1nn(C)c(=O)c(-c2c(-c3ccc(OC(F)F)cc3)sc3ccccc23)c1O [1-201] | 0 (Herbicidal rate of 5% or less (almost no effect)) |
| C#CCSCc1ccc(-c2sc3ccccc3c2-c2c(O)c(C)nn(C)c2=O)cc1 [1-247] | 0 (Herbicidal rate of 5% or less (almost no effect)) |
